Test results: patent US12696901B2, “Pesticidally active heterocyclic derivatives with sulfur containing substituents” (SYNGENTA CROP PROTECTION AG, priority 2020, dated 2026)

Experiments:
Assay type in all cases: in vivo
[1] = test system: Bemisia tabaci (Cotton White Fly); experiment: Activity against Bemisia tabaci (cotton white fly), sprayed cotton leaf discs; conditions: foliar, 144 h, application rate 200 ppm, adult white flies, 6 days after incubation
Protocol: Example B1: Activity Against Bemisia tabaci (Cotton White Fly)
Cotton leaf discs were placed on agar in 24-well microtiter plates and sprayed with aqueous test solutions prepared from 10,000 ppm DMSO stock solutions. After drying the leaf discs were infested with adult white flies. The samples were checked for mortality 6 days after incubation.

[2] = test system: Diabrotica balteata (Corn Root Worm); experiment: Activity against Diabrotica balteata (corn root worm), sprayed maize sprouts on agar; conditions: 96 h, application rate 200 ppm, L2 larvae, 4 days after infestation, read-out: effect in at least one of the two categories (mortality or growth inhibition)
Protocol: Example B2: Activity Against Diabrotica balteata (Corn Root Worm)
Maize sprouts placed onto an agar layer in 24-well microtiter plates were treated with aqueous test solutions prepared from 10,000 ppm DMSO stock solutions by spraying. After drying, the plates were infested with L2 larvae (6 to 10 per well). The samples were assessed for mortality and growth inhibition in comparison to untreated samples 4 days after infestation.

[3] = test system: Euschistus heros (Neotropical Brown Stink Bug); experiment: Activity against Euschistus heros (neotropical brown stink bug), sprayed soybean leaves; conditions: 120 h, application rate 200 ppm, N2 nymphs, 5 days after infestation, read-out: effect in at least one of the two categories (mortality or growth inhibition)
Protocol: Example B3: Activity Against Euschistus heros (Neotropical Brown Stink Bug)
Soybean leaves on agar in 24-well microtiter plates were sprayed with aqueous test solutions prepared from 10,000 ppm DMSO stock solutions. After drying the leaves were infested with N2 nymphs. The samples were assessed for mortality and growth inhibition in comparison to untreated samples 5 days after infestation.

[4] = test system: Frankliniella occidentalis (Western Flower Thrips); experiment: Activity against Frankliniella occidentalis (western flower thrips), sprayed sunflower leaf discs; conditions: foliar, 168 h, application rate 200 ppm, population of mixed ages, 7 days after infestation
Protocol: Example B4: Activity Against Frankliniella occidentalis (Western Flower Thrips)
(§1) Sunflower leaf discs were placed on agar in 24-well microtiter plates and sprayed with aqueous test solutions prepared from 10,000 ppm DMSO stock solutions. After drying the leaf discs were infested with a Frankliniella population of mixed ages. The samples were assessed for mortality 7 days after infestation.

[5] = test system: Plutella xylostella (Diamond Back Moth); experiment: Activity against Plutella xylostella (diamond back moth), treated artificial diet; conditions: 192 h, application rate 200 ppm, eggs, 8 days after infestation, read-out: effect in at least one of the two categories (mortality or growth inhibition)
Procedure, shortened: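 Artificial diet treated with aqueous test solutions made from 10,000 ppm DMSO stocks, dried, then infested with Plutella eggs. Mortality and growth inhibition scored against untreated samples 8 days after infestation.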

[6] = test system: Myzus persicae (Green Peach Aphid); experiment: Activity against Myzus persicae (green peach aphid), feeding/contact activity; conditions: 144 h, application rate 200 ppm, mixed ages, 6 days after infestation
Protocol: Example B6: Activity Against Myzus persicae (Green Peach Aphid) Feeding/Contact Activity
Sunflower leaf discs were placed onto agar in a 24-well microtiter plate and sprayed with aqueous test solutions prepared from 10,000 ppm DMSO stock solutions. After drying, the leaf discs were infested with an aphid population of mixed ages. The samples were assessed for mortality 6 days after infestation.

[7] = test system: Spodoptera littoralis (Egyptian Cotton Leaf Worm); experiment: Activity against Spodoptera littoralis (Egyptian cotton leaf worm), sprayed cotton leaf discs; conditions: foliar, 72 h, application rate 200 ppm, L1 larvae, 3 days after infestation
Procedure, shortened: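 Leaf discs on agar were sprayed with aqueous solutions prepared from 10,000 ppm DMSO stock, dried, then infested with five L1 larvae. Mortality, anti-feeding and growth inhibition were scored against untreated discs 3 days after infestation. Control was recorded when any one category exceeded the untreated sample.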

[8] = test system: Carpocapsa (Cydia) Pomonella (Codling Moth); experiment: Activity against Carpocapsa (Cydia) pomonella (codling moth), sprayed diet cubes; conditions: 336 h, application rate 12.5 ppm, L1 larvae, 14 days after infestation, read-out: effect in at least one of the two categories (mortality or growth inhibition)
Procedure, shortened: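 Paraffin-coated diet cubes were sprayed with test solutions at 12.5 ppm, dried, and infested with one L1 larva each (10 replicates). After incubation at 26–27 °C, mortality and growth inhibition were scored 14 days after infestation.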

[9] = test system: Diabrotica balteata (Corn Root Worm); experiment: Activity against Diabrotica balteata (corn root worm), corn seedlings on filter paper in cups; conditions: 120 h, application rate 3 ppm, L2 larva, 5 days after treatment, read-out: effect in at least one of the two categories (mortality or growth inhibition)
Protocol: Example B12: Activity Against Diabrotica Balteata (Corn Root Worm)
Three corn seedlings were placed on wetted filter paper in plastic cups, and 3 ml of diluted test solutions were pipetted onto them. The cups were infested with 10 L2 larva and checked for mortality and growth regulation 5 days after treatment.

[10] = test system: Tetranychus urticae (Two-Spotted Spider Mite); experiment: Activity against Tetranychus urticae (two-spotted spider mite), sprayed bean leaf discs; conditions: foliar, 192 h, application rate 200 ppm, mixed population (mobile stages), 8 days after infestation
Protocol: Example B9: Activity Against Tetranychus urticae (Two-Spotted Spider Mite)
as §1, with “Bean” for “Sunflower”, “discs” for “discs were placed”, “were” for “and”, “mite” for “Frankliniella”, “on mixed population (mobile stages) 8” for “7”

[11] = test system: Chilo suppressalis (Striped Rice Stemborer); experiment: Activity against Chilo suppressalis (striped rice stemborer), treated artificial diet; conditions: 144 h, application rate 200 ppm, L2 larvae, 6 days after infestation
Procedure, shortened: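 Artificial diet treated with aqueous test solutions made from 10,000 ppm DMSO stocks, dried, then infested with L2 larvae, 6-8 per well. Mortality, anti-feeding effect and growth inhibition scored versus untreated samples 6 days after infestation; control counted when any one category exceeds the untreated sample.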

CCS(=O)(=O)c1c(N2Cc3ccc(OC(F)(F)F)cc3C2=O)nc2cc(C3(C#N)CC3)ccn12 [Compound P5, 1-[3-ethylsulfonyl-2-[1-oxo-6-(trifluoromethoxy)isoindolin-2-yl]imidazo[1,2-a]pyridin-7-yl] cyclopropane-carbonitrile]
≥ 80%: mortality at 200 ppm [1] | percent effect (mortality or growth inhibition) at 200 ppm [2] | percent effect (mortality or growth inhibition) at 200 ppm [3] | mortality at 200 ppm [4] | percent effect (mortality or growth inhibition) at 200 ppm [5] | mortality at 200 ppm [6] | percent control (mortality, anti-feedant effect or growth inhibition) at 200 ppm [7] | percent effect (mortality or growth inhibition) at 12.5 ppm [8] | percent effect (mortality or growth inhibition) at 3 ppm [9]

CCS(=O)(=O)c1c(N2Cc3ncc(C(F)(F)F)cc3C2=O)nc2ccc(OC(F)F)cn12 [Compound P10, 6-[6-(difluoromethoxy)-3-ethylsulfonyl-imidazo[1,2-a]pyridin-2-yl]-3-(trifluoromethyl)-7H-pyrrolo[3,4-b]pyridin-5-one]
≥ 80%: mortality at 200 ppm [1] | percent effect (mortality or growth inhibition) at 200 ppm [2] | percent effect (mortality or growth inhibition) at 200 ppm [3] | mortality at 200 ppm [4] | percent effect (mortality or growth inhibition) at 200 ppm [5] | mortality at 200 ppm [6] | percent control (mortality, anti-feedant effect or growth inhibition) at 200 ppm [7] | mortality at 200 ppm [10] | percent control (mortality, anti-feedant effect or growth inhibition) at 200 ppm [11] | percent effect (mortality or growth inhibition) at 12.5 ppm [8] | percent effect (mortality or growth inhibition) at 3 ppm [9]

CCS(=O)(=O)c1c(N2Cc3ccc(OC(F)(F)F)cc3C2=O)nc2ccc(C3(C#N)CC3)cn12 [Compound P14, 1-[3-ethylsulfonyl-2-[1-oxo-6-(trifluoromethoxy)isoindolin-2-yl]imidazo[1,2-a]pyridin-6-yl] cyclopropane-carbonitrile]
≥ 80%: mortality at 200 ppm [1] | percent effect (mortality or growth inhibition) at 200 ppm [2] | percent effect (mortality or growth inhibition) at 200 ppm [3] | mortality at 200 ppm [4] | percent effect (mortality or growth inhibition) at 200 ppm [5] | mortality at 200 ppm [6] | percent control (mortality, anti-feedant effect or growth inhibition) at 200 ppm [7] | mortality at 200 ppm [10] | percent effect (mortality or growth inhibition) at 12.5 ppm [8] | percent effect (mortality or growth inhibition) at 3 ppm [9]

CCS(=O)(=O)c1c(N2Cc3ncc(C(F)(F)F)cc3C2=O)nc2ccc(C3(C#N)CC3)cn12 [Compound P15, 1-[3-ethylsulfonyl-2-[5-oxo-3-(trifluoromethyl)-7H-pyrrolo[3,4-b]pyridin-6-yl]imidazo [1,2-a]pyridin-6-yl] cyclopropane-carbonitrile]
≥ 80%: mortality at 200 ppm [1] | percent effect (mortality or growth inhibition) at 200 ppm [2] | percent effect (mortality or growth inhibition) at 200 ppm [3] | mortality at 200 ppm [4] | percent effect (mortality or growth inhibition) at 200 ppm [5] | mortality at 200 ppm [6] | percent control (mortality, anti-feedant effect or growth inhibition) at 200 ppm [7] | mortality at 200 ppm [10] | percent effect (mortality or growth inhibition) at 12.5 ppm [8] | percent effect (mortality or growth inhibition) at 3 ppm [9]

CCS(=O)(=O)c1c(N2Cc3ccc(C(F)(F)F)cc3C2=O)nc2ccc(C3(C#N)CC3)cn12 [Compound P16, 1-[3-ethylsulfonyl-2-[1-oxo-6-(trifluoromethyl)isoindolin-2-yl]imidazo[1,2-a]pyridin-6-yl] cyclopropane-carbonitrile]
≥ 80%: mortality at 200 ppm [1] | percent effect (mortality or growth inhibition) at 200 ppm [2] | percent effect (mortality or growth inhibition) at 200 ppm [3] | percent effect (mortality or growth inhibition) at 200 ppm [5] | mortality at 200 ppm [6] | percent control (mortality, anti-feedant effect or growth inhibition) at 200 ppm [7] | mortality at 200 ppm [10] | percent effect (mortality or growth inhibition) at 12.5 ppm [8] | percent effect (mortality or growth inhibition) at 3 ppm [9]

CCS(=O)(=O)c1c(N2Cc3ccc(OC(F)(F)F)cc3C2=O)nc2ccc(C(C)(F)F)cn12 [Compound P17, 2-[6-(1,1-difluoroethyl)-3-ethylsulfonyl-imidazo[1,2-a]pyridin-2-yl]-6-(trifluoromethoxy) isoindolin-1-one]
≥ 80%: mortality at 200 ppm [1] | percent effect (mortality or growth inhibition) at 200 ppm [2] | percent effect (mortality or growth inhibition) at 200 ppm [3] | mortality at 200 ppm [4] | percent effect (mortality or growth inhibition) at 200 ppm [5] | mortality at 200 ppm [6] | percent control (mortality, anti-feedant effect or growth inhibition) at 200 ppm [7] | mortality at 200 ppm [10] | percent control (mortality, anti-feedant effect or growth inhibition) at 200 ppm [11] | percent effect (mortality or growth inhibition) at 12.5 ppm [8] | percent effect (mortality or growth inhibition) at 3 ppm [9]

CCS(=O)(=O)c1c(N2Cc3ccc(S(=O)(=O)C(F)(F)F)cc3C2=O)nc2cc(OCC(F)(F)F)ccn12 [Compound P33, 2-[3-ethylsulfonyl-7-(2,2,2-trifluoroethoxy)imidazo[1,2-a]pyridin-2-yl]-6-(trifluoromethylsulfonyl)isoindolin-1-one]
≥ 80%: mortality at 200 ppm [1] | percent effect (mortality or growth inhibition) at 200 ppm [2] | percent effect (mortality or growth inhibition) at 200 ppm [3] | mortality at 200 ppm [4] | percent effect (mortality or growth inhibition) at 200 ppm [5] | mortality at 200 ppm [6] | percent control (mortality, anti-feedant effect or growth inhibition) at 200 ppm [7] | percent control (mortality, anti-feedant effect or growth inhibition) at 200 ppm [11] | percent effect (mortality or growth inhibition) at 12.5 ppm [8] | percent effect (mortality or growth inhibition) at 3 ppm [9]

CCS(=O)(=O)c1c(N2Cc3ncc(C(F)(F)F)cc3C2=O)nc2ccc(C(C)(C)C#N)cn12 [Compound P35, 2-[3-ethylsulfonyl-2-[5-oxo-3-(trifluoromethyl)-7H-pyrrolo[3,4-b]pyridin-6-yl]imidazo[1,2-a]pyridin-6-yl]-2-methyl-propanenitrile]
≥ 80%: mortality at 200 ppm [1] | percent effect (mortality or growth inhibition) at 200 ppm [2] | percent effect (mortality or growth inhibition) at 200 ppm [3] | mortality at 200 ppm [4] | percent effect (mortality or growth inhibition) at 200 ppm [5] | mortality at 200 ppm [6] | percent control (mortality, anti-feedant effect or growth inhibition) at 200 ppm [7] | mortality at 200 ppm [10] | percent control (mortality, anti-feedant effect or growth inhibition) at 200 ppm [11] | percent effect (mortality or growth inhibition) at 12.5 ppm [8] | percent effect (mortality or growth inhibition) at 3 ppm [9]

CCS(=O)(=O)c1c(N2Cc3ccc(S(=O)(=O)C(F)(F)F)cc3C2=O)nc2cc(C(F)(F)F)ccn12 [Compound P37, 2-[3-ethylsulfonyl-7-(trifluoromethyl)imidazo[1,2-a]pyridin-2-yl]-6-(trifluoromethyl-sulfonyl) isoindolin-1-one]
≥ 80%: mortality at 200 ppm [1] | percent effect (mortality or growth inhibition) at 200 ppm [2] | percent effect (mortality or growth inhibition) at 200 ppm [3] | mortality at 200 ppm [4] | mortality at 200 ppm [6] | percent control (mortality, anti-feedant effect or growth inhibition) at 200 ppm [7] | percent control (mortality, anti-feedant effect or growth inhibition) at 200 ppm [11] | percent effect (mortality or growth inhibition) at 3 ppm [9]
